Assay: Solubility of the compound of formula (i)
Format: physicochemical
Protocol: Solubility of this compound is 1.09 μg/mL in Solution 1 (pH 1.2) defined in the Japanese Pharmacopoeia at 37° C., 0.88 μg/mL in Solution 2 (pH 6.8) defined in the Japanese Pharmacopoeia at 37° C., 0.53 μg/mL in a phosphate buffer (pH 7.2) at 37° C., and about 2 mg/mL in Panasate at room temperature.

- solubility (Solution 1 defined in the Japanese Pharmacopoeia, simulated gastric fluid, Solution 1 (pH 1.2) defined in the Japanese Pharmacopoeia at 37° C.): 1.09 µg/mL
- solubility (Solution 2 defined in the Japanese Pharmacopoeia, aqueous buffer, Solution 2 (pH 6.8) defined in the Japanese Pharmacopoeia at 37° C.): 0.88 µg/mL
- solubility (aqueous buffer, phosphate buffer (pH 7.2) at 37° C.): 0.53 µg/mL
- solubility (oil or lipid, in Panasate at room temperature): ~2000 µg/mL
SMILES: O=C(Cc1c(F)cccc1Cl)Nc1onc(-c2ccc(F)cc2)c1-c1ccncn1 [formula (i)]

Reference: US8309138B2, “Pharmaceutical composition comprising microparticle oily suspension” (ASKA Pharmaceutical Co., Ltd., priority 2007, dated 2012)
